In US11596691B2, “Photoswitchable HDAC inhibitors” (The General Hospital Corporation, priority 2013, dated 2023):
Entries after “also recorded” stand apart in the source; their conditions may differ. Blank lines part the entries; values can stand above or below the compound they belong to.

How the values were obtained:
HDAC1-3 = test: HDAC IC50 assay with and without 470 nm light exposure; assay type: biochemical; details: for change of inhibitory activity against HDAC1-3 on light exposure: with vs without exposure (including 1 hr pre-exposure) to 470 nm light
Procedure: (§1) Compounds were added to white 96-well plates containing 40 μL of HDAC assay buffer (50 mM HEPES, 100 mM KCl, 0.05% BSA, 0.001% Tween-20 at pH 7.4) by pin transfer. To the assay plate was added 40 μL of a stock solution of full-length HDAC protein at three times the desired final concentration. After addition the plate was centrifuged to mix the solution while removing air bubbles. […] After which, reads were taken every 15 minutes to follow the fluorogenic release of 7-amino-4-methylcoumarin from the substrate resulting from deacetylase and trypsin enzymatic activity. In between reads the LED excitation device was reaffixed on top of the plate ensuring maximum cis-isomer population. In parallel to this, a second plate was prepared identically and measured for activity but this plate was not excited by our device but rather was covered to prevent any ambient light from shining on the plate. Replicate pairs of plates were performed.
The LED arrays were connected to a micro controller that was programmed to control individual LEDs, LED rows, or LED columns within the array. The controller allowed for modulation of LED intensity by controlling the on/off timing (PWM) or by directly controlling the supplied voltage. The temporal control was <10 ms. The LEDs and microcontroller were powered optionally by a power supply unit connected to a standard 110 V outlet or by a battery-pack, which allowed for use in a cell culture incubator. The LED array was used as lid to illuminate plates from the top and as a stage to illuminate the plates from the bottom, as required by the experimental setup.

HDAC3 = molecular target: T1, HDAC3 (Homo sapiens, UniProt O15379); test: Light-dependent HDAC3 biochemical assay (acetyl-lysine tripeptide based on acH4K12); details: for inhibition of HDAC3 enzymatic activity: in the presence and absence of light
T1 construct: 40 μL of a stock solution of full-length HDAC protein at three times the desired final concentration
Procedure: as §1

HDAC1 = molecular target: T2, HDAC1 (Homo sapiens, UniProt Q13547); test: Half-life experiment (residence time on HDAC1 after light exposure); assay type: biochemical; details: 520 nM, 1 hour 470 nm light, then dark 4, 8 and 17 hours; estimated
T2 construct: 40 μL of a stock solution of full-length HDAC protein at three times the desired final concentration
Procedure: To directly compare the residence time versus isoform relaxation time BG47 and BG48 were incubated with HDAC1 in alternating columns of a white 96-well plate. Columns 1 and 2 were exposed to 470 nm light (22.9V/0.2 A; 0.1 A per column) from LEDs using our excitation device 17 hours before the assay for 1 hour, resulting in 16 hours of relaxation time before the assay. Columns 3 and 4 were exposed to light 9 hours before the assay for 1 hour providing an 8 hour relaxation period and columns 5 and 6 were exposed 5 hours before the assay providing a 4 hour relaxation time point while columns 11 and 12 were used as controls with no pre-exposure. After the completion of the pre-exposure and relaxation time points a stock solution of trypsin and substrate was added to the plate. The plate was centrifuged and read using a Tecan Safire II every 2 minutes while keeping the plate inside the instrument, eliminating exposure to ambient light.
Both compounds were incubated at 520 nM with HDAC1, exposed for 1 hour of […] light and stored in the dark for 4, 8 and 17 hours, respectively, followed by addition of enzyme substrate. The activity was monitored in reference to unexposed compound with continuous readout measured over 2 hours, estimating a residence half-live of 12-24 hours.

Absorbance spectra = assay type: physicochemical
Source text: Compounds were profiled physically to determine absorbance spectra, solubility and kinetics of photo-isomerization kinetics and thermal relaxation (where applicable). The compounds were then profiled biochemically to determine the HDAC inhibitory profile as a function of light exposure. Finally, selected compounds were profiled in cellular assays for the ability to induce hyperacetylation of histone proteins, which represents a biomarker readout for HDAC inhibition.
Compounds studied include those analogs with a push-pull azobenzene system (BG14, BG18, BG47, BG48 and BG49).
Physical characterization of the prototype inhibitors in PBS confirmed that all compounds strongly absorb light in the blue spectrum with maximum absorbance around 470 nm.

[1] = system: acetylation of histone H3 Lysine 9 (H3K9Ac) in MCF7 cells; test: H3K9Ac pharmacodynamic marker in MCF7 cells; assay type: cell-based; details: for histone acetylation above background: in the absence of light; for acetylation of H3K9 relative to vehicle control: in the presence of light
Source text: BG14, BG47 and BG48 were profiled in cell culture to assess cellular activity using acetylation of histone H3 Lysine 9 (H3K9Ac) as a pharmacodynamic marker for HDAC inhibition. […] H3K9 acetylation levels directly correlated with light exposure.

HDAC enzyme = test: HDAC inhibitory activity as a function of light exposure time; assay type: biochemical; details: continuous 470 nm light, measured in 15 min intervals
Procedure: The activation of the photoswitchable inhibitors depends on the light energy and the exposure time (as predicted by our model). […] Following pre-incubation of the HDAC enzyme and respective small molecule inhibitor, the enzyme substrate was added and the assay plate was continuously exposed to light (470 nm). Inhibitory activities were measured in 15 min intervals.

[2] = system: acetylation of histone H3 Lysine 9; test: Acetylation of histone H3 Lysine 9 in live cells (biomarker for HDAC inhibition); assay type: cell-based; details: immunofluorescent staining, with/without light
Source text: The activity of the compounds in live cells was validated using acetylation of histone H3 Lysine 9 as a biomarker for HDAC inhibition.

MCF7 cells = test: L1000 gene expression profiling / GSEA in MCF7 cells; assay type: cell-based
Procedure: In order to gain more quantitative insights into the specific genes regulated by the presented inhibitors, and to provide further evidence that the BG inhibitors elicit biological responses similar to the closely related, but light-independent HDAC inhibitors a high-throughput gene expression analysis was performed. Expression profiling was performed in quadruplicate using the L1000™ platform (Genometry, Inc.). Specifically MCF7 cells were treated with various compounds and the transcriptional changes were measured as a function of compound concentration, light exposure intensity, and treatment duration relative to the reference HDAC inhibitors CI994 and “Merck60”.
To assess BG14's nature as an HDAC inhibitor beyond its ability to modulate HDAC and histone acetylation levels, Gene Set Enrichment Analysis (GSEA) was performed between BG14 (max concentration, max amount of light) and the known HDAC inhibitor CI-994 (the same concentration) (FIG. 15D). Very remarkably, the Normalized Enrichment Score (NES) of 3.25 indicates a very high degree of similarity between both expression profiles. The identified 177 On-Target Gene List, (landmark genes regulated by light-dependent BG14_trans only), as well as the 68 Off-Target list (landmark genes regulated in absence of light by BG14_cis) were compared to the list of genes regulated by CI-994. […]

[3] = Thermal relaxation (cis-to-trans) half-life measurement; details: aqueous vs chloroform

T1 sequence (O15379 whole entry): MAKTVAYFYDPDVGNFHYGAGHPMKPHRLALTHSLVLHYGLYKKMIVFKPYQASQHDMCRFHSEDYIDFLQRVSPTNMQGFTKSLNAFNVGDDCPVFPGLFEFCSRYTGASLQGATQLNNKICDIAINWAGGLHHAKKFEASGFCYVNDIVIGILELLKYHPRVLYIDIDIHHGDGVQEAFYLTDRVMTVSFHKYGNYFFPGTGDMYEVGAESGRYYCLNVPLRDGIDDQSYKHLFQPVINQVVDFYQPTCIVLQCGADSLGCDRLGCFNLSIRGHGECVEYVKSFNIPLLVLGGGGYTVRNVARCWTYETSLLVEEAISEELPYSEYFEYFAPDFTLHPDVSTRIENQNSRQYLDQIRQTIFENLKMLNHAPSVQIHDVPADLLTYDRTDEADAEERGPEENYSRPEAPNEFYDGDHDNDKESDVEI
T1 sequence (Q9Y618 395-489 partner limits assumed): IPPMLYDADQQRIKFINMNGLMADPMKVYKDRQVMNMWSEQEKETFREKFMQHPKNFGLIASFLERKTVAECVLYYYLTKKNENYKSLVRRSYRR
T2 sequence (Q13547 whole entry): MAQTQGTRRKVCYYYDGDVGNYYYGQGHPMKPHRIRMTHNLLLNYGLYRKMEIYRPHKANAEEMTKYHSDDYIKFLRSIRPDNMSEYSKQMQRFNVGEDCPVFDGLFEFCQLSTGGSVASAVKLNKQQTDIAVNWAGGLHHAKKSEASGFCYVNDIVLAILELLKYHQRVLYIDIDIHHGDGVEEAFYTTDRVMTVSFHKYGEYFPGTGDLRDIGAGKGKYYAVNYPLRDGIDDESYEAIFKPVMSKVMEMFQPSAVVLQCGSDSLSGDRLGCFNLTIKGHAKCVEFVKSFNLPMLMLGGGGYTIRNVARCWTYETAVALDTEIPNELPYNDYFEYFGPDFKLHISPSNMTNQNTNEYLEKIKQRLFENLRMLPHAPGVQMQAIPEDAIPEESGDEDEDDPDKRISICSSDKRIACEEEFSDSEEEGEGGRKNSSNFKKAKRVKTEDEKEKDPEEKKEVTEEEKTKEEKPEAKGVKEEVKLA

residence time (HDAC1): 720 to 1440 min
SMILES: CN(C)c1ccc(N=Nc2ccc(C(=O)Nc3cc(-c4cccs4)ccc3N)cc2)cc1 [BG47, N-(2-amino-5-(thiophen-2-yl)phenyl)-4-((4-(dimethylamino)phenyl)diazenyl)benzamide]
HDAC isoform selectivity (HDAC1-3): HDAC1/2-selective | change of inhibitory activity against HDAC1-3 on light exposure (HDAC1-3): Significantly increased activity | inhibition of HDAC3 enzymatic activity (HDAC3): did not inhibit HDAC3 in the presence and absence of light | absorbance range (Absorbance spectra): absorbed in the blue range of the visible spectrum | histone acetylation above background [1]: No significant histone acetylation above background | acetylation of H3K9 relative to vehicle control [1]: strongly induced acetylation of H3K9

inhibition of HDAC3 enzymatic activity (HDAC3): no differential activity
SMILES: CC(=O)Nc1ccc(C(=O)Nc2ccccc2N)cc1 [CI-994, reference compound]
change of inhibitory activity against HDAC1-3 on light exposure (HDAC1-3): no differential activity

SMILES: Nc1ccccc1NC(=O)c1ccc(CNC(=O)OCc2cccnc2)cc1 [MS-275]
activity change as a function of light exposure time (HDAC enzyme): Only compound BG14 shows increased activity with increased exposure time

absorbance range (Absorbance spectra): maximally absorbs in the UV range
SMILES: Nc1ccccc1NC(=O)c1ccc(N=Nc2ccccc2)cc1 [BG12, N-(2-aminophenyl)-4-(phenyldiazenyl)benzamide]

residence time (HDAC1): 720 to 1440 min
SMILES: CN(C)c1ccc(N=Nc2ccc(C(=O)Nc3cc(-c4ccccc4)ccc3N)cc2)cc1 [BG48, N-(4-amino-[1,1′-biphenyl]-3-yl)-4-((4-(dimethylamino)phenyl)diazenyl)benzamide]
HDAC isoform selectivity (HDAC1-3): HDAC1/2-selective | change of inhibitory activity against HDAC1-3 on light exposure (HDAC1-3): Significantly increased activity | inhibition of HDAC3 enzymatic activity (HDAC3): did not inhibit HDAC3 in the presence and absence of light | absorbance range (Absorbance spectra): absorbed in the blue range of the visible spectrum | histone acetylation above background [1]: No significant histone acetylation above background | acetylation of H3K9 relative to vehicle control [1]: strongly induced acetylation of H3K9

SMILES: CN(C)c1ccc(N=Nc2ccc(C(=O)Nc3ccccc3O)cc2)cc1 [BG49, 4-((4-(dimethylamino)phenyl)diazenyl)-N-(2-hydroxyphenyl)benzamides]
inhibition of HDAC3 enzymatic activity (HDAC3): not targeted | hyperacetylation of H3K9 relative to DMSO control [2]: statistically significant induced hyperacetylation of H3K9 relative to DMSO control was observed only following light exposure

SMILES: CN(C)c1ccc(N=Nc2ccc(C(=O)Nc3ccccc3N)cc2)cc1 [BG14, N-(2-aminophenyl)-4-((4-(dimethylamino)phenyl)diazenyl)benzamide]
change of inhibitory activity against HDAC1-3 on light exposure (HDAC1-3): Significantly increased activity | inhibition of HDAC3 enzymatic activity (HDAC3): potent light-dependent inhibitory activity; also recorded: also inhibits HDAC3 | dependence of HDAC3 inhibitory activity on light exposure (HDAC3; varying average light exposure): directly proportional to the average light exposure | absorbance range (Absorbance spectra): absorbed in the blue range of the visible spectrum | histone acetylation above background [1]: No significant histone acetylation above background | acetylation of H3K9 relative to vehicle control [1]: strongly induced acetylation of H3K9 | increase of H3K9 acetylation compared among the inhibitors ([1]; with light): strongest increase of H3K9 acetylation | transcript levels of L1000 landmark genes (MCF7 cells; MCF7, absence of light): did not show any significant changes in transcript levels | expression levels of landmark genes (MCF7 cells; MCF7, increasing amounts of light): significant changes of expression levels of specific landmark genes | activity change as a function of light exposure time (HDAC enzyme): increased activity with increased exposure time

thermal relaxation faster than previous measurements in chloroform [3]: approximately 120 ×
SMILES: CN(C)c1ccc(N=Nc2ccc(C(=O)O)cc2)cc1 [DABCYL]

SMILES: CN(C)c1ccc(N=Nc2ccc(C(=O)Nc3ccccc3O)cc2)cc1 [BG18, 4-((4-(dimethylamino)phenyl)diazenyl)-N-(2-hydroxyphenyl)benzamides]
change of inhibitory activity against HDAC1-3 on light exposure (HDAC1-3): Significantly increased activity | absorbance range (Absorbance spectra): absorbed in the blue range of the visible spectrum

SMILES: O=C(CCCCCCC(=O)Nc1ccccc1)NO [SAHA]
activity change as a function of light exposure time (HDAC enzyme): Only compound BG14 shows increased activity with increased exposure time

absorbance range (Absorbance spectra): maximally absorbs in the UV range
SMILES: Nc1ccccc1NC(=O)c1ccc(N=Nc2ccc(C(=O)O)cc2)cc1 [BG19, 4-((4-((2-aminophenyl)carbamoyl)phenyl)diazenyl)benzoic Acid]
